Measured values reported in the supplement of paper PMC4862054.

Key:
Conditions in all cases: incubation time: 72 h
[1] = test system: MDA-MB-231; experiment: drug sensitivity score (DSS), CellTox Green (DSS (AUC-based score)); higher = stronger drug effect (viability inhibition or cytotoxicity); extreme values may be limits of the assay
In short: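 Breast cancer cell lines, seeded as 20 µl suspension, were incubated 72 h with compound in 384-well plates at 5 concentrations in 10-fold steps over a 10,000-fold range set for each compound. Fluorescence from CellTox Green was read at 485/520 nm before CellTiter-Glo luminescence, which was read after 10 min at room temperature. Every plate was normalised to 0.1 % DMSO and a positive kill control, and the drug sensitivity score was taken from the area under the fitted dose-response curve.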

[2] = test system: HCC1143; experiment: drug sensitivity score (DSS), CellTiter-Blue viability (DSS (AUC-based score)); higher = stronger viability inhibition; extreme values may be limits of the assay
In short: (§1)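 Breast cancer cell lines in 20 µl suspension were seeded into 384-well plates already holding compound in a 5- or 9-concentration series and incubated for 72 h. CellTiter-Blue reagent (2.5 µl per well) was then added for 2 h at 37 °C, and fluorescence was read at 560/590 nm. Values on each plate were normalised to 0.1 % DMSO and a positive kill control. The drug sensitivity score is the area under the fitted dose-response curve.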

[3] = test system: SK-BR-3; experiment: as above
In short: as §1

[4] = test system: MDA-MB-468; experiment: as above
In short: as §1

[5] = test system: Hs578T; experiment: normalised viability (% of control), CellTiter-Blue; higher = more viable cells (about 100 = DMSO control)
In short: (§2)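 The reported quantity is normalised viability at a single listed concentration of the series. Compound in 5 µl medium was pre-dispensed into 384-well plates and 20 µl of breast cancer cell suspension was added for 72 h. A 2 h, 37 °C CellTiter-Blue step (2.5 µl) preceded fluorescence reading at 560/590 nm, and plates were normalised to vehicle (100) and a positive kill control (0).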

[6] = test system: HCC1599; experiment: as above
In short: as §2

[7] = test system: MDA-MB-231; experiment: as above
In short: as §2

[8] = test system: MDA-MB-436; experiment: as above
In short: as §2

[9] = test system: BT-549; experiment: as above
In short: as §2

[10] = test system: HCC1143; experiment: as above
In short: as §2

[11] = test system: CAL-85-1; experiment: as above
In short: as §2

[12] = test system: MDA-MB-453; experiment: as above
In short: as §2

[13] = test system: HCC1937; experiment: as above
In short: as §2

[14] = test system: CAL-120; experiment: as above
In short: as §2

[15] = test system: SK-BR-3; experiment: as above
In short: as §2

[16] = test system: CAL-148; experiment: as above
In short: as §2

[17] = test system: MFM-223; experiment: as above
In short: as §2

[18] = test system: HDQ-P1; experiment: as above
In short: as §2

[19] = test system: CAL-51; experiment: as above
In short: as §2

[20] = test system: MDA-MB-468; experiment: as above
In short: as §2

[21] = test system: DU-4475; experiment: as above
In short: as §2

[22] = test system: BT-474; experiment: as above
In short: as §2

CCn1c(-c2nonc2N)nc2cnc(Oc3cccc(NC(=O)c4ccc(OCCN5CCOCC5)cc4)c3)cc21
drug sensitivity score [1]: 4.85

Cc1cc(Nc2cc(CN3CCOCC3)c3nc(C)c(Cc4ccc(Cl)cc4F)n3n2)n[nH]1
drug sensitivity score [2]: 11.4 | drug sensitivity score [3]: 6.64 | drug sensitivity score [4]: 10.3 | normalised viability ([5]; 10 nM): 110% | normalised viability ([5]; 1000 nM): 81.6% | normalised viability ([5]; 10000 nM): 2.66% | normalised viability ([6]; 10 nM): 109% | normalised viability ([6]; 1000 nM): 90.5% | normalised viability ([6]; 10000 nM): 92% | normalised viability ([7]; 10 nM): 102% | normalised viability ([7]; 1000 nM): 83.6% | normalised viability ([7]; 10000 nM): 18.7% | normalised viability ([8]; 10 nM): 109% | normalised viability ([8]; 1000 nM): 71.1% | normalised viability ([8]; 10000 nM): 36.8% | normalised viability ([9]; 10 nM): 97.8% | normalised viability ([9]; 1000 nM): 78.8% | normalised viability ([9]; 10000 nM): 9.99% | normalised viability ([10]; 10 nM): 78.1% | normalised viability ([10]; 1000 nM): 58.9% | normalised viability ([10]; 10000 nM): 35.5% | normalised viability ([11]; 3 nM): 87.2% | normalised viability ([11]; 30 nM): 83.3% | normalised viability ([11]; 100 nM): 93.1% | normalised viability ([12]; 3 nM): 90.4% | normalised viability ([12]; 30 nM): 101% | normalised viability ([12]; 100 nM): 82.8% | normalised viability ([13]; 10 nM): 80.4% | normalised viability ([13]; 1000 nM): 64.7% | normalised viability ([13]; 10000 nM): 44% | normalised viability ([14]; 10 nM): 83.7% | normalised viability ([14]; 1000 nM): 57.6% | normalised viability ([14]; 10000 nM): 14.8% | normalised viability ([15]; 10 nM): 102% | normalised viability ([15]; 1000 nM): 70.9% | normalised viability ([15]; 10000 nM): 30.5% | normalised viability ([16]; 3 nM): 84.1% | normalised viability ([16]; 30 nM): 87.7% | normalised viability ([16]; 100 nM): 88.2% | normalised viability ([17]; 10 nM): 102% | normalised viability ([17]; 1000 nM): 50.6% | normalised viability ([17]; 10000 nM): 44.8% | normalised viability ([18]; 3 nM): 89.9% | normalised viability ([18]; 30 nM): 82% | normalised viability ([18]; 100 nM): 82.4% | normalised viability ([19]; 3 nM): 97.1% | normalised viability ([19]; 30 nM): 95.2% | normalised viability ([19]; 100 nM): 94.2% | normalised viability ([20]; 10 nM): 103% | normalised viability ([20]; 1000 nM): 61.4% | normalised viability ([20]; 10000 nM): 7.11% | normalised viability ([21]; 3 nM): 110% | normalised viability ([21]; 30 nM): 94.7% | normalised viability ([21]; 100 nM): 122% | normalised viability ([22]; 10 nM): 109% | normalised viability ([22]; 1000 nM): 96.6% | normalised viability ([22]; 10000 nM): 49.7%

N#Cc1ccc(COC[C@H]2O[C@@H](n3c(NCc4ccc(Cl)c(Cl)c4)nc4c(N)ncnc43)[C@H](O)[C@@H]2O)cc1
drug sensitivity score [1]: 0 | drug sensitivity score [2]: 0 | drug sensitivity score [3]: 1.46 | drug sensitivity score [4]: 1.65 | normalised viability ([5]; 10 nM): 104% | normalised viability ([5]; 1000 nM): 99.3% | normalised viability ([5]; 10000 nM): 73.8% | normalised viability ([6]; 10 nM): 97.3% | normalised viability ([6]; 1000 nM): 65.6% | normalised viability ([6]; 10000 nM): 22% | normalised viability ([7]; 10 nM): 128% | normalised viability ([7]; 1000 nM): 77.3% | normalised viability ([7]; 10000 nM): 57.2% | normalised viability ([8]; 10 nM): 95.2% | normalised viability ([8]; 1000 nM): 84.8% | normalised viability ([8]; 10000 nM): 50.9% | normalised viability ([9]; 10 nM): 87.7% | normalised viability ([9]; 1000 nM): 84% | normalised viability ([9]; 10000 nM): 34.4% | normalised viability ([10]; 10 nM): 90.1% | normalised viability ([10]; 1000 nM): 87.4% | normalised viability ([10]; 10000 nM): 60.8% | normalised viability ([11]; 3 nM): 108% | normalised viability ([11]; 30 nM): 107% | normalised viability ([11]; 100 nM): 110% | normalised viability ([12]; 3 nM): 124% | normalised viability ([12]; 30 nM): 95.7% | normalised viability ([12]; 100 nM): 91.4% | normalised viability ([13]; 10 nM): 135% | normalised viability ([13]; 1000 nM): 78.5% | normalised viability ([13]; 10000 nM): 71.8% | normalised viability ([14]; 10 nM): 103% | normalised viability ([14]; 1000 nM): 110% | normalised viability ([14]; 10000 nM): 62.4% | normalised viability ([15]; 10 nM): 115% | normalised viability ([15]; 1000 nM): 102% | normalised viability ([15]; 10000 nM): 37.3% | normalised viability ([16]; 3 nM): 101% | normalised viability ([16]; 30 nM): 105% | normalised viability ([16]; 100 nM): 99.3% | normalised viability ([17]; 10 nM): 93% | normalised viability ([17]; 1000 nM): 101% | normalised viability ([17]; 10000 nM): 93.6% | normalised viability ([18]; 3 nM): 115% | normalised viability ([18]; 30 nM): 104% | normalised viability ([18]; 100 nM): 105% | normalised viability ([19]; 3 nM): 118% | normalised viability ([19]; 30 nM): 110% | normalised viability ([19]; 100 nM): 110% | normalised viability ([20]; 10 nM): 108% | normalised viability ([20]; 1000 nM): 89.7% | normalised viability ([20]; 10000 nM): 68.7% | normalised viability ([21]; 3 nM): 97.8% | normalised viability ([21]; 30 nM): 88.7% | normalised viability ([21]; 100 nM): 113% | normalised viability ([22]; 10 nM): 135% | normalised viability ([22]; 1000 nM): 95% | normalised viability ([22]; 10000 nM): 89.5%
